These results are taken from article PMC9643853, “Synthesis and evaluation of 3-alkynyl-5-aryl-7-aza-indoles as broad-spectrum antiviral agents” (Frontiers in Chemistry, 2022).

The test system of data set [1] is RSV-A. In words: RSV-A cytopathic effect (CPE) reduction assay in HEp-2 cells, MTS read-out. Type of data set: cell-based, human respiratory syncytial virus, RSV-A strain Long. As to conditions: for EC50: read-out: RSV-A EC50. A general note: Cytopathic effects are the visible damage that an infection or toxin causes in cultured cells.
Data set [2] has as its system VEEV (TC-83). In words: microbe, parasite or virus in culture. Type of data set: cell-based. As to conditions: Venezuelan equine encephalitis virus, U-87 MG, 18 h, read-out: VEEV EC50.
Data set [3] is described as follows: in vitro. Conditions: human.
The nature of data set [4]: in vitro. As to conditions: human. The source holds these as a separate data set.
The mark [5] stands for this setting: human respiratory syncytial virus, HEp-2, 96 h.
[6] abbreviates: HEp-2 cells, inhibition of virus-induced cytopathogenicity by 50%, MOI 0.01, 4 days.

Where two headings read alike, the source gives them in different places.

The term EC50 denotes the concentration at which the effect is half-maximal. As for `COc1ccc(-c2cnc3[nH]cc(C#Cc4cccnc4)c3c2)cc1` [Compound 4a, 5-(4-Methoxyphenyl)-3-(pyridin-3-ylethynyl)-1H-pyrrolo[2,3-b]pyridine], the values for the 50% effective concentration (EC50) in data set [1] (setting [5]) and in data set [2] were 0.048 ± 0.037 µM and 6.81 ± 1.87 µM, respectively. Moreover, in data set [3], the CC50 is > 10 µM. This molecule yielded a CC50 at 4 days in data set [4] of 0.24 ± 0.23 µM.

In the case of `COCCOc1ccc(-c2cnc3[nH]cc(C#Cc4cccnc4)c3c2)cc1` [Compound 4f], the “anti-RSV activity (in words)” value in data set [1] (HEp-2 cells) is “completely devoid of anti-RSV activity”. Besides, the values for the EC50 in data set [1] (setting [5]) and in data set [2] were 30 ± 28.3 µM and > 10 µM, respectively. Moreover, in data set [3], the CC50 was > 10 µM. In data set [4], the CC50 at 4 days is > 50 µM.

Turning to `COc1cc(OC)cc(-c2cnc3[nH]cc(C#Cc4ccccn4)c3c2)c1` [Compound 5a], the 50% effective concentration (EC50) was 0.08 µM in data set [1] (setting [5]) and > 10 µM in data set [2]. Further, the CC50 in data set [3] is > 10 µM. Moreover, the CC50 at 4 days in data set [4] stood at 0.24 ± 0.23 µM.

`C(#Cc1c[nH]c2ncc(-c3ccoc3)cc12)c1cccnc1` [Compound 4j]: the “anti-RSV activity (in words)” value in data set [1] (HEp-2 cells) was “completely devoid of anti-RSV activity”. Moreover, the figures for the half-maximal effective concentration (EC50) in data set [1] (setting [5]) and in data set [2] were 47.8 ± 3.07 µM and > 10 µM, respectively. Further, the CC50 in data set [3] is > 10 µM. In addition, the CC50 at 4 days in data set [4] was > 50 µM.

Take `O=C(NC1CC1)c1cccc(-c2cnc3[nH]cc(C#Cc4cccc(Cl)c4)c3c2)c1` [Compound 9f]: in data set [1] (HEp-2 cells), the “anti-RSV activity (in words)” value was “inactive”. The EC50 is > 50 µM in data set [1] (setting [5]) and 6.7 ± 2.79 µM in data set [2]. Moreover, in data set [3], the CC50 is > 10 µM. In addition, the CC50 at 4 days in data set [4] was > 50 µM.

For the molecule `CN(C)C(=O)c1cccc(-c2cnc3[nH]cc(C#Cc4cccnc4)c3c2)c1` [Compound 8j], the EC50 worked out at 3.65 ± 2.28 µM in data set [1] (setting [5]) and 4.57 ± 4.87 µM in data set [2]. The CC50 in data set [3] was > 10 µM. In addition, the CC50 at 4 days in data set [4] was > 50 µM.

Regarding `COc1cc(OC)cc(-c2cnc3[nH]cc(C#Cc4cccc(Cl)c4)c3c2)c1` [Compound 5d], the “loss of activity against RSV-A relative to compound 4d” value in data set [1] (HEp-2 cells) worked out at 30 fold. For the same molecule, the results for the EC50 in data set [1] (setting [5]) and in data set [2] were 16.3 µM and 6.13 ± 0.94 µM, respectively. Moreover, the CC50 in data set [3] was > 10 µM. Moreover, in data set [4], the CC50 at 4 days was > 50 µM.

As to `COc1ccccc1-c1cnc2[nH]cc(C#Cc3cccnc3)c2c1` [Compound 4c], the EC50 in data set [1] (setting [5]) came out at 0.69 ± 0.32 µM; in data set [2], 5.34 ± 1.87 µM. Moreover, the CC50 in data set [3] is > 10 µM. This molecule also had a CC50 at 4 days in data set [4] of 6 ± 5.66 µM.

Turning to `COc1cncc(C#Cc2c[nH]c3ncc(-c4cccc(C(=O)NC5CC5)c4)cc23)c1` [Compound 9b], the EC50 in data set [1] (setting [5]) was found to be 0.24 ± 0.057 µM; in data set [2] it was 1.39 ± 0.2 µM. This molecule showed a CC50 in data set [3] of 8.99 ± 1.6 µM. Also, in data set [4], the CC50 at 4 days was found to be 22.2 ± 3.68 µM.

As for `COc1cc(OC)cc(-c2cnc3[nH]cc(C#Cc4ccc(F)cc4)c3c2)c1` [Compound 5c], the concentration for a half-maximal effect (EC50) was determined as 0.36 ± 0.064 µM in data set [1] (setting [5]) and 6.27 ± 0.93 µM in data set [2]. Besides, the CC50 in data set [3] is > 10 µM. The same molecule gave a CC50 at 4 days in data set [4] of 1.66 ± 0.89 µM.

As for `CN1CCN(C)/C(=N/c2ccc([N+](=O)[O-])cc2C(=O)Nc2ccccc2)C1` [ML-336, (E)-2-((1,4-Dimethylpiperazin-2-ylidene)amino)-5-nitro-N-phenylbenzamide, reference compound], in data set [2], the EC50 is 0.04 ± 0.01 µM. The CC50 in data set [3] is > 10 µM.

In the case of `C(#Cc1c[nH]c2ncc(-c3ccsc3)cc12)c1cccnc1` [Compound 4k], the results for the EC50 in data set [1] (setting [5]) and in data set [2] were 4.83 ± 1.44 µM and > 10 µM, respectively. In addition, the CC50 in data set [3] was > 10 µM. Besides, the CC50 at 4 days in data set [4] is > 50 µM.

Regarding `Fc1ccc(-c2cnc3[nH]cc(C#Cc4cccnc4)c3c2)cc1` [Compound 4i], the concentration giving a half-maximal response (EC50) in data set [1] (setting [5]) stood at 2.23 ± 1.32 µM; in data set [2], 9.05 ± 1.03 µM. Further, the CC50 in data set [3] was > 10 µM. Besides, the CC50 at 4 days in data set [4] was > 50 µM.

With `COc1cccc(C#Cc2c[nH]c3ncc(-c4cc(OC)cc(OC)c4)cc23)c1` [Compound 5e], the “loss of activity against RSV-A relative to compound 4d” value in data set [1] (HEp-2 cells) was determined as 5 fold. Further, the EC50 in data set [1] (setting [5]) came out at 2.75 ± 0.24 µM; in data set [2], 6.29 ± 2.71 µM. In data set [3], the CC50 is > 10 µM. Besides, the CC50 at 4 days in data set [4] was > 50 µM.

In the case of `COc1cc(OC)cc(-c2cnc3c(c2)c(C#Cc2cccnc2)cn3Cc2ccccc2)c1` [Compound 7d], the figures for the EC50 in data set [1] (setting [5]) and in data set [2] were 4.88 ± 0.28 µM and > 10 µM, respectively. The CC50 in data set [3] is > 10 µM. Moreover, the CC50 at 4 days in data set [4] is > 50 µM.

On to `CNC(=O)c1ccc(-c2cnc3[nH]cc(C#Cc4cccnc4)c3c2)cc1` [Compound 8a], for which the EC50 in data set [1] (setting [5]) amounted to 0.89 ± 0.4 µM; in data set [2], 2.72 ± 0.93 µM. Moreover, the CC50 in data set [3] was > 10 µM. In data set [4], the CC50 at 4 days amounted to 6 ± 5.66 µM.

In the case of `O=C(NC1CC1)c1cccc(-c2cnc3[nH]cc(C#Cc4ccsc4)c3c2)c1` [Compound 9e], the 50% effective concentration (EC50) in data set [1] (setting [5]) was 0.51 ± 0.16 µM; in data set [2] it was > 10 µM. In addition, the CC50 in data set [3] is > 10 µM. Further, in data set [4], the CC50 at 4 days was > 50 µM.

Consider `COc1cc(OC)cc(-c2cnc3[nH]cc(C#Cc4ccccc4)c3c2)c1` [Compound 5b], for which the values for the EC50 in data set [1] (setting [5]) and in data set [2] were 1.59 ± 0.59 µM and > 10 µM, respectively. Moreover, the CC50 in data set [3] was > 10 µM. Further, the CC50 at 4 days in data set [4] was 6 ± 4.35 µM.

For `COc1cccc(-c2cnc3[nH]cc(C#Cc4cccnc4)c3c2)c1` [Compound 4b], the EC50 was 0.67 ± 0.43 µM in data set [1] (setting [5]) and > 10 µM in data set [2]. In addition, the CC50 in data set [3] is > 10 µM. In data set [4], this molecule showed a CC50 at 4 days of 6 ± 5.66 µM.

On to `COc1cc(OC)cc(-c2cnc3[nH]cc(C#Cc4ccsc4)c3c2)c1` [Compound 5f], for which the concentration giving a half-maximal response (EC50) in data set [1] (setting [5]) is 0.31 ± 0.13 µM; in data set [2] it was 4.3 ± 0.47 µM. Moreover, the CC50 in data set [3] was > 10 µM. For the same molecule, the CC50 at 4 days in data set [4] stood at 1.84 ± 0.95 µM.

Take `COc1cccc(C#Cc2c[nH]c3ncc(-c4cccc(C(=O)NC5CC5)c4)cc23)c1` [Compound 9g]: the half-maximal effective concentration (EC50) in data set [1] (setting [5]) was determined as 0.1 ± 0.19 µM; in data set [2], 5.27 ± 1.01 µM. In data set [3], the CC50 is > 10 µM. Besides, the CC50 at 4 days in data set [4] is > 20 µM.

In the case of `CCn1cc(C#Cc2cccnc2)c2cc(-c3cc(OC)cc(OC)c3)cnc21` [Compound 7b], the values for the EC50 in data set [1] (setting [5]) and in data set [2] were > 2 µM and 3.92 ± 1.15 µM, respectively. Also, in data set [3], the CC50 was > 10 µM. The CC50 at 4 days in data set [4] came to 2 µM.

In the case of `O=C(NC1CC1)c1cccc(-c2cnc3[nH]cc(C#Cc4ccc(F)nc4)c3c2)c1` [Compound 9a], the “loss in anti-RSV activity relative to compound 8f” value in data set [1] (HEp-2 cells) is recorded as 10 fold. The values for the EC50 in data set [1] (setting [5]) and in data set [2] were 1.76 ± 0.91 µM and 6.54 ± 1.21 µM, respectively. Also, the CC50 in data set [3] was > 10 µM. In addition, the CC50 at 4 days in data set [4] was > 50 µM.

On to `Cc1ccc(CCCO)c(NCc2ccc3nc(NCCCN4CCOCC4)n(Cc4nc(C)ccc4O)c3c2)c1` [TMC353121, reference compound], for which the EC50 in data set [1] (setting [6]) was determined as 0.0013 ± 0.0008 µM.

On to `O=C(NC1CC1)c1ccc(-c2cnc3[nH]cc(C#Cc4cccnc4)c3c2)cc1` [Compound 8d], for which the half-maximal effective concentration (EC50) in data set [1] (setting [5]) was 4.63 ± 3.71 µM; in data set [2], > 10 µM. The CC50 in data set [3] is > 10 µM. For the same molecule, the CC50 at 4 days in data set [4] came to 50 µM.

Regarding `Clc1cccc(-c2cnc3[nH]cc(C#Cc4cccnc4)c3c2)c1` [Compound 4h], the concentration giving a half-maximal response (EC50) in data set [1] (setting [5]) was 2.89 ± 2.24 µM; in data set [2] it was > 10 µM. The CC50 in data set [3] is > 10 µM. Also, the CC50 at 4 days in data set [4] is > 50 µM.

On to “dextran sulfate sodium salt [DS-10000, reference compound]”, for which the concentration giving a half-maximal response (EC50) in data set [1] (setting [6]) is 0.068 ± 0.045 µM.

In the case of `NC(=O)c1ncn([C@@H]2O[C@H](CO)[C@@H](O)[C@H]2O)n1` [Ribavirin, reference compound], in data set [1] (setting [5]), the EC50 is 3.11 ± 1.85 µM. Also, the CC50 at 4 days in data set [4] was > 50 µM.
